# Laboratory results published in paper PMC11525786, “In silico and pharmacological evaluation of GPR65 as a cancer immunotherapy target regulating T-cell functions” (Frontiers in Immunology, 2024).
# Molecular target: T1, GPR65 (Homo sapiens, UniProt Q8IYL9)
# T1 construct: GPR65 overexpressed in A375 cells (rCD2-GPR65 tandem lentivector)
# Assay: HTRF cAMP induction in GPR65-overexpressing A375 cells ([…] agonist, pH […]), blocked by GPR65 antagonists
# Assay type: cell-based
# T1 sequence (Q8IYL9 whole entry): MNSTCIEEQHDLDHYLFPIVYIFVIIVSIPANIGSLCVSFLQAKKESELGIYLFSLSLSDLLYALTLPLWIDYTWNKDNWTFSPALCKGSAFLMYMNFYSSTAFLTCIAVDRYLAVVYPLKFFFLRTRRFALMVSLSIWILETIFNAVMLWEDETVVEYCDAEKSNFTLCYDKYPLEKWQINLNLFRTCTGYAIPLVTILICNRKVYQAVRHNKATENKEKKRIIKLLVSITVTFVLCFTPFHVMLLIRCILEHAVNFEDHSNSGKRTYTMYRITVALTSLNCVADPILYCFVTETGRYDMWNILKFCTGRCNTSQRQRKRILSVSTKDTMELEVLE
compound,measurement,value
"CN1N=C(SCc2ccc(Cl)cc2Cl)Sc2c1cnn(C)c2=O [BTB09089, 3-[(2,4-dichlorobenzyl)thio]-1,6-dimethyl-5,6-dihydro-1H-pyridazino [4,5-e][1,3,4]thiadiazin-5-one]","HTRF cAMP induction in GPR65-overexpressing A375 cells (1 μM agonist, pH 7.5), b",capacity to inhibit cAMP biosynthesis upon GPR65 activation by BTB09089
